This note sets out measurements from patent publication US20260224688A1, “HELPER LIPIDS FOR NUCLEIC ACID DELIVERY” (SANOFI PASTEUR INC., priority 2023, published 2026).

The structures appear in SMILES notation.

A short description of data set [1]: mRNA encapsulation efficiency of lipid nanoparticles. In kind it is physicochemical. Particulars: for Encapsulation efficiency (EE): LNP with cationic lipid CL-A. An excerpt: In embodiments, the lipid nanoparticle encapsulates a nucleic acid, optionally an mRNA encoding a peptide or protein. In embodiments, the lipid nanoparticle encapsulates an mRNA encoding a peptide or protein, optionally for use in a vaccine. In embodiments, the peptide is an antigen. As used herein, the phrase “encapsulation percentage” refers to the fraction of therapeutic agent (e.g. mRNA) that is effectively encapsulated within a liposomal-based vehicle (e.g. a lipid nanoparticle) relative to the initial fraction of therapeutic agent present in the lipid phase. In embodiments, the lipid nanoparticles have an encapsulation percentage for mRNA of at least 50%. In embodiments, the lipid nanoparticles have an encapsulation percentage for mRNA of at least 55%. In embodiments, the lipid nanoparticles have an encapsulation percentage for mRNA of at least 60%. In embodiments, the lipid nanoparticles have an encapsulation percentage for mRNA of at least 65%. In embodiments, the lipid nanoparticles have an encapsulation percentage for mRNA of at least 70%. In embodiments, the lipid nanoparticles have an encapsulation percentage for mRNA of at least 75%. In embodiments, the lipid nanoparticles have an encapsulation percentage for mRNA of at least 80%. In embodiments, the lipid nanoparticles have an encapsulation percentage for mRNA of at least 85%. In embodiments, the lipid nanoparticles have an encapsulation percentage for mRNA of at least 90%. In embodiments, the lipid nanoparticles have an encapsulation percentage for mRNA of at least 95%. In embodiments, the encapsulation percentage is calculated by performing the Ribogreen assay (Invitrogen) with and without the presence of 0.1% Triton-X 100.
The lipid nanoparticles in the examples of the present invention were formulated using Process A of WO 2018/089801 (see, e.g., Example 1 and FIG. 1 of WO 2018/089801). Process A (“A”) relates to a conventional method of encapsulating mRNA by mixing mRNA with a mixture of lipids, without first pre-forming the lipids into lipid nanoparticles. In an exemplary process, an ethanolic solution of a mixture of lipids (cationic lipid, phosphatidylethanolamine, cholesterol, and polyethylene glycol-lipid) at a fixed lipid to mRNA ratio were combined with an aqueous buffered solution of target mRNA at an acidic pH under controlled conditions to yield a suspension of uniform LNPs. After ultrafiltration and diafiltration into a suitable diluent system, the resulting nanoparticle suspensions were diluted to final concentration, filtered, and stored frozen at −80° C. until use.
(§1) Lipid nanoparticle formulations 3 were prepared by Process A at a molar ratio of 40:1.5:30:28.5 (Cationic Lipid: DMG-PEG2000: Cholesterol: Helper Lipid) with the cationic lipids and helper lipids disclosed in the tables below. The Polydispersity Index (Pdl) of lipid nanoparticles can be determined by diluting the formulation in 10% trehalose at about 0.1 mg/ml mRNA concentration and then measuring the size on Malvern zetasizer. The lipid nanoparticle size can be obtained with Malvern Zetasizer Nano-ZS.

For data set [2], the system named is hEPO. Nature of the data set: IM EPO expression of LNPs containing new helper lipids (hEPO in serum by ELISA). Type of data set: in vivo, female BALB/cJ mice. The conditions noted are these: single IM injection; for 24-h EPO: serum 24 hours post injection. As for the experimental part: Lipid nanoparticles were formulated containing the four lipid components shown below at a ratio of 40:30:28.5:1.5, complexed with a hEPO messenger RNA. • Cationic lipid, 40 mol % • Phospholipid (PEA) helper lipid, 30 mol % • Cholesterol, 28.5 mol % • DMG-PEG-2K (1,2-dimyristoyl-rac-glycero-3-methoxypolyethyleneglycol), 1.5 mol % The cationic lipid component of each formulation was selected from the compounds in the table below: […]
EPO expression studies were conducted with female BALB/cJ mice 6-8 weeks of age. Mice were dosed with […] EPO mRNA in 30 μL of LNPs by a single intramuscular (IM) injection into the gastrocnemius leg muscle. Blood samples were taken 6 and 24 hours post injection and hEPO levels were measured in the blood serum of the mice using an ELISA assay according to the manufacture's protocol. WO2022/099003 A1 also describes an in vivo assay for intramuscular administration (e.g. on page 46, paragraph [00206]).

Data set [3] deals with hEPO. Nature of the data set: IV EPO expression of LNPs (tail vein injection). The conditions noted are these: cationic lipid CL-0137, helper lipid 30 mol %; 0.017 μg EPO mRNA tail vein; 6 hours; DOPE = 1. Type of data set: in vivo, female BALB/cJ mice. On the procedure:
Lipid nanoparticles were formulated containing the four lipid components shown below at a ratio of 40:30:28.5:1.5, complexed with a hEPO messenger RNA. • Cationic lipid CL-0137, 40 mol % • Helper lipid, 30 mol % • Cholesterol, 28.5 mol % • DMG-PEG-2K (1,2-dimyristoyl-rac-glycero-3-methoxypolyethyleneglycol), 1.5 mol %
EPO expression studies were conducted with female BALB/cJ mice 6-8 weeks of age. Mice were dosed with 0.017 μg EPO mRNA LNPs in a volume of 5 ul by a single tail vein injection. Blood samples were taken 6 hours post injection and hEPO levels were measured in the blood serum of the mice using an ELISA assay according to the manufacture's protocol.

Data set [4] can be described thus: Dynamic light scattering of lipid nanoparticles (size, PDI). Type of data set: physicochemical. On the procedure: as §1
Dynamic light scattering (DLS) measurements were performed using a Malvern Instruments Zetasizer with a backscattering detector angle of 173° and a 4-mW, 633-nm He—Ne laser (Worcestershire, UK). The samples were analyzed by diluting in 10% Trehalose and measuring the size and Poly dispersity Index (PDI) in an optical grade polystyrene cuvette.

[5] abbreviates: CL-B LNP, serum 6 hours post injection.
The mark [6] stands for this setting: LNP with cationic lipid CL-A, hEPO mRNA, 40:30:28.5:1.5.
[7] abbreviates: CL-A LNP, 0.1 μg EPO mRNA in 30 μL, serum 6 hours post injection.

In the case of `CCCCCCCCCC(CCCCCCCCC)C(=O)OCC(COP(=O)(O)OCCN(C)C)OC(=O)C(CCCCCCCCC)CCCCCCCCC` (stereo not drawn) [Compound 9, 3-(((2 (Dimethylamino)ethoxy)(hydroxy)phosphoryl)oxy)-propane-1,2-diyl bis(2-nonylundecanoate)], in data set [1], the “Encapsulation efficiency (EE)” value turned out to be 84%. Besides, the EE in data set [1] (LNP with cationic lipid CL-B) and in data set [1] (LNP with cationic lipid CL-C) was 78% in each case. The “6-h EPO” value was found to be 5.6 ng/mL with hEPO [2] (setting [5]); 12.2 ng/mL in the data set with hEPO [2] (CL-C LNP); 22.3 ng/mL with hEPO [2] (CL-C LNP, (6-h)). In the data set with hEPO [2] (CL-B LNP), the “24-h EPO” value is reported as 3.3 ng/mL. Besides, in the data set on hEPO [3], the “Normalized Mean IV EPO expression” value is recorded as 3.68. The “Polydispersity Index (PDI)” value in data set [4] (LNP with cationic lipid CL-A) is recorded as 0.126. The Size in data set [4] (setting [6]) amounted to 112 nm; in data set [4] (LNP with cationic lipid CL-B), 108.2 nm; in data set [4] (LNP with cationic lipid CL-C), 110.1 nm. Further, the PDI was 0.113 in data set [4] (LNP with cationic lipid CL-B) and 0.087 in data set [4] (LNP with cationic lipid CL-C).
On to `CCCCCCCCC(CCCCCCCC)C(=O)OCCCCCC(=O)OCC(COP(=O)(O)OCCN(C)C)OC(=O)CCCCCOC(=O)C(CCCCCCCC)CCCCCCCC` (stereo not drawn) [Compound 17, ((3-(((2-(Dimethylamino)ethoxy)(hydroxy)phosphoryl)oxy)propane-1,2-diyl)bis(oxy))bis(6-oxohexane-6,1-diyl) bis(2-octyldecanoate)], for which, in data set [1], the “Encapsulation efficiency (EE)” value worked out at 93%. Besides, the EE in data set [1] (LNP with cationic lipid CL-B) was 81%; in data set [1] (LNP with cationic lipid CL-C), 60%. Further, the “6-h EPO” value was 16.3 ng/mL in the data set with hEPO [2] (setting [7]); 14.5 ng/mL in the data set on hEPO [2] (setting [5]); 31.7 ng/mL in the data set on hEPO [2] (CL-C LNP, (6-h)). Besides, the “Normalized Mean IV EPO expression” value in the data set with hEPO [3] is reported as 4.53. Also, the “Polydispersity Index (PDI)” value in data set [4] (LNP with cationic lipid CL-A) was determined as 0.071. In addition, the Size in data set [4] (setting [6]) is 137 nm; in data set [4] (LNP with cationic lipid CL-B) it was 122.7 nm; in data set [4] (LNP with cationic lipid CL-C) it was 110.9 nm. Further, the PDI in data set [4] (LNP with cationic lipid CL-B) amounted to 0.022; in data set [4] (LNP with cationic lipid CL-C) it was 0.054.
As for `CCCCCCCCCCC(CCCCCCCCCC)OC(=O)CCCCCCC(=O)OCC(COP(=O)(O)OCCN(C)C)OC(=O)CCCCCCC(=O)OC(CCCCCCCCCC)CCCCCCCCCC` (stereo not drawn) [Compound 19, O′1,O1-(3-(((2-(dimethylamino)ethoxy)(hydroxy)phosphoryl)oxy)propane-1,2-diyl) 8-di(henicosan-11-yl) di(octanedioate)], the “Encapsulation efficiency (EE)” value in data set [1] came to 94%. Also, the values for the EE in data set [1] (LNP with cationic lipid CL-B) and in data set [1] (LNP with cationic lipid CL-C) were 93% and 92%, respectively. Besides, the “6-h EPO” value is on record as 11.7 ng/mL with hEPO [2] (setting [7]); 28.9 ng/mL in the data set with hEPO [2] (setting [5]); 12.9 ng/mL with hEPO [2] (CL-C LNP, (6-h)). The “Normalized Mean IV EPO expression” value in the data set on hEPO [3] came to 2.59. For the same compound, the “Polydispersity Index (PDI)” value in data set [4] (LNP with cationic lipid CL-A) turned out to be 0.075. The Size in data set [4] (setting [6]) worked out at 136 nm; in data set [4] (LNP with cationic lipid CL-B), 112.7 nm; in data set [4] (LNP with cationic lipid CL-C), 110.6 nm. The values for the PDI in data set [4] (LNP with cationic lipid CL-B) and in data set [4] (LNP with cationic lipid CL-C) were 0.095 and 0.078, respectively.
`CCCCCCCCC(CCCCC)COC(=O)CCC(=O)OCC(COP(=O)(O)OCCN)OC(=O)CCC(=O)OCC(CCCCC)CCCCCCCC` (stereo not drawn) [Compound 5, O,O′-(3-(((2-Aminoethoxy)(hydroxy)phosphoryl)oxy)propane-1,2-diyl) bis(2-pentyldecyl) disuccinate]: the “Encapsulation efficiency (EE)” value in data set [1] is 91%. Moreover, the EE came out at 90% in data set [1] (LNP with cationic lipid CL-B) and 88% in data set [1] (LNP with cationic lipid CL-C). Also, the “6-h EPO” value is recorded as 9.8 ng/mL with hEPO [2] (setting [5]); 10.1 ng/mL in the data set with hEPO [2] (CL-C LNP); 13.3 ng/mL in the data set on hEPO [2] (CL-C LNP, (6-h)). Moreover, the “24-h EPO” value in the data set with hEPO [2] (CL-B LNP) worked out at 6.4 ng/mL. The “Normalized Mean IV EPO expression” value in the data set on hEPO [3] is 1.25. Moreover, in data set [4] (LNP with cationic lipid CL-A), the “Polydispersity Index (PDI)” value was 0.106. Also, the Size in data set [4] (setting [6]) is 121 nm; in data set [4] (LNP with cationic lipid CL-B), 98.9 nm; in data set [4] (LNP with cationic lipid CL-C) it was 97.9 nm. The values for the PDI in data set [4] (LNP with cationic lipid CL-B) and in data set [4] (LNP with cationic lipid CL-C) were 0.108 and 0.047, respectively.
As for `CCCCCCCCOC(=O)CCCCCCCC(=O)OCC(COP(=O)(O)OCCN(C)C)OC(=O)CCCCCCCC(=O)OCCCCCCCC` (stereo not drawn) [Compound 7, O′^1,O^1-(3-(((2-(Dimethylamino)ethoxy)(hydroxy)phosphoryl)oxy)-propane-1,2-diyl) 9-dioctyl di(nonanedioate)], the “Encapsulation efficiency (EE)” value in data set [1] is reported as 88%. Also, the EE in data set [1] (LNP with cationic lipid CL-B) is 92%; in data set [1] (LNP with cationic lipid CL-C), 92%; in data set [1] (LNP with cationic lipid CL-D), 85%. In addition, the “6-h EPO” value is 3.7 ng/mL with hEPO [2] (setting [5]); 2.6 ng/mL with hEPO [2] (CL-C LNP); 5.5 ng/mL in the data set with hEPO [2] (CL-C LNP, (6-h)). Also, in the data set with hEPO [2] (CL-B LNP), the “24-h EPO” value amounted to 1.4 ng/mL. Also, the “Normalized Mean IV EPO expression” value in the data set with hEPO [3] is given as 0.52. In data set [4] (LNP with cationic lipid CL-A), the “Polydispersity Index (PDI)” value was 0.09. The Size in data set [4] (setting [6]) stood at 120 nm; in data set [4] (LNP with cationic lipid CL-B), 88.2 nm; in data set [4] (LNP with cationic lipid CL-C) it was 87.4 nm; in data set [4] (LNP with cationic lipid CL-D) it was 121.9 nm. Besides, the PDI turned out to be 0.111 in data set [4] (LNP with cationic lipid CL-B), 0.099 in data set [4] (LNP with cationic lipid CL-C) and 0.089 in data set [4] (LNP with cationic lipid CL-D).
Take `CCCCCCCCC(CCCCCCCC)OC(=O)CCCCCCC(=O)OC[C@@H](COP(=O)(O)OCCN(C)C)OC(=O)CCCCCCC(=O)OC(CCCCCCCC)CCCCCCCC` [Compound 13]: the “Encapsulation efficiency (EE)” value in data set [1] was 94%. Besides, the EE in data set [1] (LNP with cationic lipid CL-B) was found to be 96%; in data set [1] (LNP with cationic lipid CL-C), 93%. Also, the “6-h EPO” value in the data set with hEPO [2] (setting [7]) turned out to be 8.348 ng/mL; in the data set with hEPO [2] (setting [5]), 53.8 ng/mL; in the data set with hEPO [2] (CL-C LNP, (6-h)) it was 64.4 ng/mL. Moreover, the “Normalized Mean IV EPO expression” value in the data set on hEPO [3] is on record as 1.47. The “Polydispersity Index (PDI)” value in data set [4] (LNP with cationic lipid CL-A) is reported as 0.048. The Size stood at 166 nm in data set [4] (setting [6]), 141.9 nm in data set [4] (LNP with cationic lipid CL-B) and 98.0 nm in data set [4] (LNP with cationic lipid CL-C). In addition, the PDI was 0.127 in data set [4] (LNP with cationic lipid CL-B) and 0.112 in data set [4] (LNP with cationic lipid CL-C).
